Laboratory results published in ChEMBL document CHEMBL5376011, “Discovery of Anti-Hypercholesterolemia Agents Targeting LXRα from Marine Microorganism-Derived Natural Products” (J Nat Prod, 2024).
Activity calls are given as the source filed them.

Assays:
[1] = target: T1, Oxysterols receptor LXR-alpha (Homo sapiens) (UniProt Q13133); experiment: Agonist activity at LXRalpha in human HepG2 cells assessed as upregulation of CYP7A1 protein expression level at 25 uM incubated for 24 hrs by Western blot analysis; format: cell-based; details: filed as agonist
T1 sequence (whole entry): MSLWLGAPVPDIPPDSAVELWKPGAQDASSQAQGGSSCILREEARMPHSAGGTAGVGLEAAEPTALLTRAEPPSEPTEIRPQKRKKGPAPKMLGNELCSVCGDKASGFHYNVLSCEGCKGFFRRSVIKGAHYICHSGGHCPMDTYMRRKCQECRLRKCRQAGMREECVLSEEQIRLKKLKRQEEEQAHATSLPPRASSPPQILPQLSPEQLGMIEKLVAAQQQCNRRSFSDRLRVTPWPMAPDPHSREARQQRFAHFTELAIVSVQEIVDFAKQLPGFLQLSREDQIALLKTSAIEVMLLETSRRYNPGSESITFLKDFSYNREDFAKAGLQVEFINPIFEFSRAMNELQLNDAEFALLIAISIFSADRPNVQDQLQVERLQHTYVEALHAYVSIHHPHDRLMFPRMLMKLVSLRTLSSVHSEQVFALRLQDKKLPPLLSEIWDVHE

[2] = system: HepG2; experiment: Effect on LXRbeta mRNA expression in human HepG2 cells at 25 uM incubated for 24 hrs by RT-qPCR analysis; format: functional, cell-based
[3] = target: T1, Oxysterols receptor LXR-alpha (Homo sapiens); experiment: Agonist activity at LXRalpha in human HepG2 cells assessed as upregulation of ABCA1 protein expression level at 25 uM incubated for 24 hrs by Western blot analysis; format: cell-based; details: filed as agonist
[4] = system: Mus musculus; experiment: Antihypercholesterolemic activity against high cholesterol diet fed LXRalpha knockout C57BL/6J mouse assessed as improvement in hepatocellular degeneration at 300 microg/kg, ip administered every 2 days for 15 days by H&E staining based analysis; format: functional, organism-based; details: dose 300.0 µg/kg, time 15.0 day
[5] = system: Mus musculus; experiment: Antihypercholesterolemic activity against high cholesterol diet fed LXRalpha knockout C57BL/6J mouse assessed as improvement in hepatocellular degeneration at 300 microg/kg, ip administered every 2 days for 15 days by Oil red staining based analysis; format: functional, organism-based; details: dose 300.0 µg/kg, time 15.0 day
[6] = system: Mus musculus; experiment: Antihypercholesterolemic activity against high cholesterol diet fed LXRalpha knockout C57BL/6J mouse assessed as reduction in serum high density lipoprotein cholesterol level at 300 microg/kg, ip administered every 2 days for 15 days; format: functional, organism-based; details: dose 300.0 µg/kg, time 15.0 day
[7] = system: Mus musculus; experiment: Antihypercholesterolemic activity against high cholesterol diet fed C57BL/6J mouse assessed as reduction in hepatocyte lysis necrosis at 300 microg/kg, ip administered every 2 days for 15 days by Oil red staining based analysis; format: functional, organism-based; details: dose 300.0 µg/kg, time 15.0 day
[8] = system: Mus musculus; experiment: Antihypercholesterolemic activity against high cholesterol diet fed LXRalpha knockout C57BL/6J mouse assessed as upregulation in ABCA1 protein level at 300 microg/kg, ip administered every 2 days for 15 days by Western blot analysis; format: functional, organism-based; details: dose 300.0 µg/kg, time 15.0 day
[9] = system: Mus musculus; experiment: Antihypercholesterolemic activity against high cholesterol diet fed LXRalpha knockout C57BL/6J mouse assessed as improvement in liver lipid droplet accumulation at 300 microg/kg, ip administered every 2 days for 15 days by Oil red staining based analysis; format: functional, organism-based; details: dose 300.0 µg/kg, time 15.0 day
[10] = system: HepG2; experiment: Effect on ABCG1 mRNA expression in human HepG2 cells at 25 uM incubated for 24 hrs by RT-qPCR analysis; format: functional, cell-based
[11] = system: Mus musculus; experiment: Antihypercholesterolemic activity against high cholesterol diet fed LXRalpha knockout C57BL/6J mouse assessed as reduction in serum alanine aminotransferase level at 300 microg/kg, ip administered every 2 days for 15 days; format: functional, organism-based; details: dose 300.0 µg/kg, time 15.0 day
[12] = system: Mus musculus; experiment: Antihypercholesterolemic activity against high cholesterol diet fed C57BL/6J mouse assessed as reduction in SREBP1 protein level at 300 microg/kg, ip administered every 2 days for 15 days by Western blot analysis; format: functional, organism-based; details: dose 300.0 µg/kg, time 15.0 day
[13] = system: HepG2; experiment: Improvement of lipid metabolism in palmitic acid and oleic acid induced human HepG2 cell model of hepatic steatosis assessed as reduction in total cellular cholesterol level at 25 uM preincubated with palmitic acid and oleic acid for 48 hrs followed by compound addition and measured after 24 hrs; format: functional, cell-based
[14] = system: HepG2; experiment: (§1) Improvement of lipid metabolism in palmitic acid and oleic acid induced human HepG2 cell model of hepatic steatosis assessed as reduction in triglyceride level at 25 uM preincubated with palmitic acid and oleic acid for 48 hrs followed by compound addition and measured after 24 hrs; format: functional, cell-based
[15] = system: Mus musculus; experiment: Antihypercholesterolemic activity against high cholesterol diet fed C57BL/6J mouse assessed as reduction of fine vacuoles in the cytoplasm at 300 microg/kg, ip administered every 2 days for 15 days by Oil red staining based analysis; format: functional, organism-based; details: dose 300.0 µg/kg, time 15.0 day
[16] = system: Mus musculus; experiment: Antihypercholesterolemic activity against high cholesterol diet fed LXRalpha knockout C57BL/6J mouse assessed as reduction in serum low density lipoprotein cholesterol level at 300 microg/kg, ip administered every 2 days for 15 days; format: functional, organism-based; details: dose 300.0 µg/kg, time 15.0 day
[17] = system: Mus musculus; experiment: Antihypercholesterolemic activity against high cholesterol diet fed LXRalpha knockout C57BL/6J mouse assessed as improvement in hepatic steatosis at 300 microg/kg, ip administered every 2 days for 15 days by H&E staining based analysis; format: functional, organism-based; details: dose 300.0 µg/kg, time 15.0 day
[18] = system: Mus musculus; experiment: Antihypercholesterolemic activity against high cholesterol diet induced C57BL/6J mouse assessed as reduction in serum alanine aminotransferase level at 300 microg/kg, ip administered every 2 days for 15 days; format: functional, organism-based; details: dose 300.0 µg/kg, time 15.0 day
[19] = system: Mus musculus; experiment: Antihypercholesterolemic activity against high cholesterol diet fed C57BL/6J mouse assessed as reduction in degree of hepatic steatosis at 300 microg/kg, ip administered every 2 days for 15 days by H&E staining based analysis; format: functional, organism-based; details: dose 300.0 µg/kg, time 15.0 day
[20] = system: Mus musculus; experiment: Antihypercholesterolemic activity against high cholesterol diet fed C57BL/6J mouse assessed as improvement in hepatocyte liposis at 300 microg/kg, ip administered every 2 days for 15 days by H&E staining based analysis; format: functional, organism-based; details: dose 300.0 µg/kg, time 15.0 day
[21] = system: Mus musculus; experiment: Antihypercholesterolemic activity against high cholesterol diet induced C57BL/6J mouse assessed as reduction in plasma low-density lipoprotein cholesterol level at 300 microg/kg, ip administered every 2 days for 15 days; format: functional, organism-based; details: dose 300.0 µg/kg, time 15.0 day
[22] = system: Mus musculus; experiment: Antihypercholesterolemic activity against high cholesterol diet fed C57BL/6J mouse assessed as reduction in SCD1 protein level at 300 microg/kg, ip administered every 2 days for 15 days by Western blot analysis; format: functional, organism-based; details: dose 300.0 µg/kg, time 15.0 day
[23] = system: Mus musculus; experiment: Antihypercholesterolemic activity against high cholesterol diet fed C57BL/6J mouse assessed as reduction in degree of hepatic steatosis at 300 microg/kg, ip administered every 2 days for 15 days by Oil red staining based analysis; format: functional, organism-based; details: dose 300.0 µg/kg, time 15.0 day
[24] = system: Mus musculus; experiment: Antihypercholesterolemic activity against high cholesterol diet fed C57BL/6J mouse assessed as improvement in hepatocyte degeneration at 300 microg/kg, ip administered every 2 days for 15 days by H&E staining based analysis; format: functional, organism-based; details: dose 300.0 µg/kg, time 15.0 day
[25] = system: Mus musculus; experiment: Antihypercholesterolemic activity against high cholesterol diet induced C57BL/6J mouse assessed as reduction in hepatocyte damage at 300 microg/kg, ip administered every 2 days for 15 days; format: functional, organism-based; details: dose 300.0 µg/kg, time 15.0 day
[26] = system: Mus musculus; experiment: Antihypercholesterolemic activity against high cholesterol diet fed C57BL/6J mouse assessed as reduction of fine vacuoles in the cytoplasm at 300 microg/kg, ip administered every 2 days for 15 days by H&E staining based analysis; format: functional, organism-based; details: dose 300.0 µg/kg, time 15.0 day
[27] = system: Mus musculus; experiment: Antihypercholesterolemic activity against high cholesterol diet fed LXRalpha knockout C57BL/6J mouse assessed as reduction in serum triglycerides level at 300 microg/kg, ip administered every 2 days for 15 days; format: functional, organism-based; details: dose 300.0 µg/kg, time 15.0 day
[28] = system: Mus musculus; experiment: Antihypercholesterolemic activity against high cholesterol diet fed LXRalpha knockout C57BL/6J mouse assessed as upregulation in CYP7A1 protein level at 300 microg/kg, ip administered every 2 days for 15 days by Western blot analysis; format: functional, organism-based; details: dose 300.0 µg/kg, time 15.0 day
[29] = system: Mus musculus; experiment: Antihypercholesterolemic activity against high cholesterol diet induced C57BL/6J mouse assessed as reduction in total cholesterol level in plasma at 300 microg/kg, ip administered every 2 days for 15 days; format: functional, organism-based; details: dose 300.0 µg/kg, time 15.0 day
[30] = target: T1, Oxysterols receptor LXR-alpha (Homo sapiens); experiment: Agonist activity at LXRalpha in human HepG2 cells assessed as upregulation of ABCA1 mRNA expression by measuring fold change at 25 uM incubated for 24 hrs by RT-qPCR analysis; format: cell-based; details: filed as agonist
[31] = system: Mus musculus; experiment: Antihypercholesterolemic activity against high cholesterol diet fed LXRalpha knockout C57BL/6J mouse assessed as improvement in liver lipid droplet accumulation at 300 microg/kg, ip administered every 2 days for 15 days by H&E staining based analysis; format: functional, organism-based; details: dose 300.0 µg/kg, time 15.0 day
[32] = Cytotoxicity against human HepG2 cells assessed as reduction in cell viability incubated for 24 hrs by CCK8 assay; format: toxicity, cell-based
[33] = system: HepG2; experiment: as §1, with “reduction in lipid droplets at 25” for “reduction in triglyceride level at 25”, “24 hrs by Oil Red O staining based analysis” for “24 hrs”; format: functional
[34] = system: Mus musculus; experiment: Antihypercholesterolemic activity against high cholesterol diet fed LXRalpha knockout C57BL/6J mouse assessed as reduction in serum aspartate aminotransferase level at 300 microg/kg, ip administered every 2 days for 15 days; format: functional, organism-based; details: dose 300.0 µg/kg, time 15.0 day
[35] = system: Mus musculus; experiment: Antihypercholesterolemic activity against high cholesterol diet fed C57BL/6J mouse assessed as reduction in hepatocyte lysis necrosis at 300 microg/kg, ip administered every 2 days for 15 days by H&E staining based analysis; format: functional, organism-based; details: dose 300.0 µg/kg, time 15.0 day
[36] = system: Mus musculus; experiment: Antihypercholesterolemic activity against high cholesterol diet fed LXRalpha knockout C57BL/6J mouse assessed as improvement in hepatic steatosis at 300 microg/kg, ip administered every 2 days for 15 days by Oil red staining based analysis; format: functional, organism-based; details: dose 300.0 µg/kg, time 15.0 day
[37] = target: T2, Oxysterols receptor LXR-alpha (Homo sapiens, UniProt Q13133); experiment: Binding affinity to full length human LXRalpha assessed as dissociation constant by SPR analysis
T2 sequence (Q13133 whole entry): T1 sequence (whole entry)

[38] = system: Mus musculus; experiment: Antihypercholesterolemic activity against high cholesterol diet fed C57BL/6J mouse assessed as improvement in hepatocyte degeneration at 300 microg/kg, ip administered every 2 days for 15 days by Oil red staining based analysis; format: functional, organism-based; details: dose 300.0 µg/kg, time 15.0 day
[39] = system: Mus musculus; experiment: Antihypercholesterolemic activity against high cholesterol diet fed C57BL/6J mouse assessed as reduction in FASN protein level at 300 microg/kg, ip administered every 2 days for 15 days by Western blot analysis; format: functional, organism-based; details: dose 300.0 µg/kg, time 15.0 day
[40] = system: Mus musculus; experiment: Antihypercholesterolemic activity against high cholesterol diet fed C57BL/6J mouse assessed as improvement in hepatocyte liposis at 300 microg/kg, ip administered every 2 days for 15 days by Oil red staining based analysis; format: functional, organism-based; details: dose 300.0 µg/kg, time 15.0 day
[41] = target: T1, Oxysterols receptor LXR-alpha (Homo sapiens); experiment: Agonist activity at LXRalpha in human HepG2 cells assessed as upregulation of CYP7A1 mRNA expression by measuring fold change at 25 uM incubated for 24 hrs by RT-qPCR analysis; format: cell-based; details: filed as agonist
[42] = system: Mus musculus; experiment: Antihypercholesterolemic activity against high cholesterol diet induced C57BL/6J mouse assessed as reduction in serum aspartate aminotransferase level at 300 microg/kg, ip administered every 2 days for 15 days; format: functional, organism-based; details: dose 300.0 µg/kg, time 15.0 day
[43] = system: Mus musculus; experiment: Antihypercholesterolemic activity against high cholesterol diet fed LXRalpha knockout C57BL/6J mouse assessed as reduction in serum total cholesterol level at 300 microg/kg, ip administered every 2 days for 15 days; format: functional, organism-based; details: dose 300.0 µg/kg, time 15.0 day

COc1ccc2c(C[C@@H]3NC(=O)[C@@H]4CCCN4C3=O)c(CC=C(C)C)[nH]c2c1 [TRYPROSTATIN A]
5.01: fold change (FC) [41]
active: Activity [1] | Activity [3] | Activity [4] | Activity [5] | Activity [7] | Activity [9] | Activity [12] | Activity [13] | Activity [14] | Activity [15] | Activity [17] | Activity [18] | Activity [19] | Activity [20] | Activity [21] | Activity [22] | Activity [23] | Activity [24] | Activity [25] | Activity [26] | Activity [29] | Activity [31] | Activity [33] | Activity [35] | Activity [36] | Activity [38] | Activity [39] | Activity [40] | Activity [42]
10.2 nM: Kd [37]
2.05: fold change (FC) [30]
> 50000 nM: IC50 at 24 h [32]
inactive: Activity [2] | Activity [6] | Activity [8] | Activity [10] | Activity [11] | Activity [16] | Activity [27] | Activity [28] | Activity [34] | Activity [43]
